Measurements published in patent publication US11802107B2, “Compounds and methods of use” (Signum Biosciences, Inc., priority 2017, dated 2023).
In brackets after ≈: the same amount, converted by molar mass.

Tests used:
IL-17 = test: P. acnes-induced IL-17 protein on human PBMCs (ELISA); format: cell-based; details: PBMC, PBMCs + live P. acnes 1:1, test material 30 PM, 24 hours
Method: (§1) Cryopreserved human Peripheral Blood Mononuclear cells (PBMCs) from healthy adult donors were obtained from Zen Bio, Inc (Cat No. SER-PBMC-F). Cells were cultured in 12-well plates with lymphocyte media (Cat No. LYMPH-1) and incubated with test materials ([…]) and live P. acnes (ATCC® 6919TM) at 1:1 PBMC: P. acnes bacteria ratio for 24 hours at 37° C. and 5% CO2. After incubation, cell media supernatants were harvested and used to measure pro-inflammatory cytokine levels (IL-8, TNF-α, IL-1b, IL-17) using ELISA kits (BD Biosciences® #557966, #555212, #555244; R&D Systems® #DY317). Total RNA was extracted from cells using the RNAqueous® kit (Ambion®; Cat No. 1912) and cDNA was obtained using the High Capacity RNA-to-cDNA kit (Applied Biosystems®; Cat No. 4387406). Quantitative PCR (qPCR) was performed using the TaqMan® Fast Advanced Master Mix (Applied Biosystems®; Cat No. 4444556) and specific TaqMan®-probes human gene primers CXCL8 (IL-8), IL1B (IL-1b), TNF (TNF-α), IL17A (IL-17A) and GAPDH to calculate the relative gene fold expression change per treatment. Gene expression analysis was performed using the comparative Ct method (also known as the 2-[delta][delta]Ct) approach by comparing the Ct values of P. acnes-only treated cells with the untreated samples and normalized to GAPDH gene expression as endogenous housekeeping gene.

[1] = tested on: P. acnes (ATCC 6919) biofilms; test: P. acnes biofilm eradication (MBEC), crystal violet; format: cell-based, Propionibacterium acnes; details: 24 hours, ≥80% eradication vs vehicle
Method: P. acnes (ATCC® 6919™) was cultured as described above. Bacteria biofilms were established by seeding P. acnes cultures in 96-well plates and incubating for 24 hours without agitation. Later, biofilms were incubated with test materials for 24 hours. Remaining biofilms were washed and stained with crystal violet. […] The absorbance was measured at 595 nm in a microplate reader. […] Results from disk diffusion susceptibility testing (Kirby-Bauer Method) after 72 hours incubation were also obtained.

IL-8 [2] = test: P. acnes-induced IL-8 protein on human PBMCs (ELISA); format: cell-based; details: PBMCs + live P. acnes 1:1, test material 30 PM, 24 hours
Method: as §1

TNF-α = test: P. acnes-induced TNF-α protein on human PBMCs (ELISA); format: cell-based; details: PBMCs + live P. acnes 1:1, test material 30 PM, 24 hours
Method: as §1

DEFB103 (hBD3) = test: NHEK antimicrobial peptide gene expression, hBD3; format: cell-based, human; details: 10 μM, 24 hours, qPCR, normalized to GAPDH
Method: (§2) Normal human epidermal keratinocytes (NHEKs) from neonatal donors were obtained from Thermo-Fisher (Cat No. C-001-5C). Cells were cultured in 6-well plates for 24 hours before treatments with EpiLife media (Cat No. MEPI500CA) supplemented with keratinocytes growth supplement (Cat No. 50015). On Day 2, media was removed and incubated with test materials (10 μM) for 24 hours at 37° C. and 5% CO2. On Day 3, total RNA was extracted from cells using the RNAqueous® kit (Ambion®; Cat No. 1912) and cDNA was obtained using the High Capacity RNA-to-cDNA kit (Applied Biosystems®; Cat No. 4387406). Quantitative PCR (qPCR) was performed using the TaqMan® Fast Advanced Master Mix (Applied Biosystems®; Cat No. 4444556) and specific TaqMan®-probes human gene primers DEFB4B (hBD2), DEFB103 (hBD3), HCAP18 and GAPDH to calculate the relative gene fold expression change per treatment. Gene expression analysis was performed using the comparative Ct method (also known as the 2-[delta][delta]Ct) approach by comparing the Ct values of the treated samples with the untreated samples and normalized to GAPDH gene expression as endogenous housekeeping gene. Results were represented as fold-expression/untreated cells.

P. acnes (ATCC 6919) [3] = test: Minimal inhibitory concentration (MIC) against P. acnes; format: cell-based, Propionibacterium acnes; details: Cutibacterium acnes, ATCC6919, 72 h, P. acnes ATCC 6919, 10^6 CFU/mL, read-out: MIC
Method: To determine minimal inhibitory concentration (MIC), reagents were dissolved in vehicle (5% v/v) and then added to bacteria suspension. P. acnes (ATCC® 6919TM) at 10^6 CFU/mL was incubated with test materials at the concentrations of two-fold serial dilution (0.25-500 μg/mL) and incubated for 72 hours (P. acnes).

P. acnes (ATCC 6919) [4] = test: Minimal bactericidal concentration (MBC) against P. acnes; format: cell-based, Propionibacterium acnes; details: Cutibacterium acnes, ATCC6919; P. acnes 10^7 CFU/mL, in PBS, anaerobic conditions
HCAP18 = test: NHEK antimicrobial peptide gene expression, hCAP18; format: cell-based, human; details: 10 μM, 24 hours, qPCR, normalized to GAPDH
Method: as §2

IL-8 [5] = test: Peptidoglycan (PGN)-induced IL-8 on NHEKs; format: cell-based, human; details: Homo sapiens; NHEK, PGN 10 μg/mL, 24 hours, ELISA; read-out: PGN-NHEK 1L-8 Protein IC50
Method: (§3) Normal human epidermal keratinocytes (NHEKs) from neonatal donors were obtained from Thermo-Fisher (Cat No. C-001-5C). Cells were cultured in 96-well plates for 24 hours with EpiLife media (Cat No. MEPI500CA) supplemented with keratinocytes growth supplement (Cat No. S0015). On Day 2, media was removed and replaced with supplement-depleted medium for 24 hours. On Day 3, media was removed and cells were pre-treated with test materials (≤1 μM) for 2 hours and later co-treated with test materials and PGN (Sigma Aldrich, Cat No. 77140) at 10 μg/mL and incubated for 24 hours at 37° C. and 5% CO2. PGN is a TLR-2 agonist. After incubation, cell media supernatants were harvested and used to measure pro-inflammatory cytokine levels (IL-8) using ELISA kit (BD Biosciences® #555244). Results were represented as percent of inhibition relative to untreated and PGN-only treated cells. IC50 values were determined by non-linear regression analysis using the four-parameter logistic equation.

DEFB4B (hBD2) = test: NHEK antimicrobial peptide gene expression, hBD2; format: cell-based, human; details: 10 μM, 24 hours, qPCR, normalized to GAPDH
Method: as §2

IL-1b = test: P. acnes-induced IL-1b protein on human PBMCs (ELISA); format: cell-based; details: PBMC, PBMCs + live P. acnes 1:1, test material 30 PM, 24 hours
Method: as §1

IL-8 [6] = test: P. acnes-induced IL-8 on human NHEKs; format: cell-based; details: Homo sapiens; NHEK, live P. acnes 10^7 CFU, 24 hours, ELISA; read-out: P. acnes-NHEK IL-8 Protein IC50
Method: as §3, with “([…])” for “(≤1 μM)”, “live P. acnes (ATCC® 6919TM)” for “PGN (Sigma Aldrich, Cat No. 77140)”, “10^7 CFU” for “10 μg/mL and incubated”, “CO2.” for “CO2. PGN is a TLR-2 agonist.”, “kits” for “kit”, “P. acnes-only” for “PGN-only”

CXCL8 (IL-8) = test: P. acnes-induced IL-8 gene on human PBMCs (qPCR); format: cell-based; details: PBMC, PBMCs + live P. acnes 1:1, test material 30 PM, 24 hours
Method: as §1

IL1B (IL-1b) = test: P. acnes-induced IL-1b gene on human PBMCs (qPCR); format: cell-based; details: PBMC, PBMCs + live P. acnes 1:1, test material 30 PM, 24 hours
Method: as §1

Balb/C mice = test: Oxazolone-induced delayed-type hypersensitivity (DTH) in vivo model; details: Mus musculus, topical to ears @ 3% w/v, 24 hours, read-out: Edema % inhibition
Method: Inbred male Balb/C mice were purchased from Hilltop Lab Animals (Scottdale, PA) and were used between 8 and 10 weeks of age. Mice backs were shaved and 100 μl of 3% v/v Oxazolone (Sigma Aldrich, Cat No. E0753) in acetone/olive oil (4:1) was applied to dorsal skin for sensitization. On Day 7, ears were challenged with 0.5% v/v Oxazolone and 30 minutes after challenge, test materials at 3% w/v were applied to ears (10 μl applied both to the dorsal and ventral surfaces of the mouse ear using a solvent pipette) and 24 hours later, skin thickness (edema) was measured. A 6-mm punch biopsy was obtained from each ear, snap frozen in liquid nitrogen. Ear skin biopsy punches were pulverized using FastPrep®-24 Biopulverizer (MP Biomedical, CatNo. 116004500) and Lysing Matrix A tubes (CatNo. 16910050). Protein extracts were obtained using 500 μL/tissue of cold T-PER buffer (ThermoFisher, CatNo. 78510) with Protease inhibitors (Sigma-Aldich, CatNo. 58820-20TAB). Soluble protein fractions were used to measure cytokine levels (IL-4) using ELISA kit (BD Biosciences® #555232). Results were represented as percent of inhibition relative to unsensitized and sensitized-only treated animals. Vehicle for presently disclosed compounds was 60:40 H2O:EtOH and 1:1 Acetone:EtOH for AN2718. (n=5-15 animals per treatment group).
Compound C was further analyzed at various dosages against 0.4 mg/ear of […] by the above protocol, data representing the average±S.E. of cumulative data from three independent experiments (n=12-15 mice per group) is shown below: […]

IL17A (IL-17A) = test: P. acnes-induced IL-17 gene on human PBMCs (qPCR); format: cell-based; details: PBMC, PBMCs + live P. acnes 1:1, test material 30 PM, 24 hours
Method: as §1

TNF (TNF-α) = test: P. acnes-induced TNF-α gene on human PBMCs (qPCR); format: cell-based; details: PBMC, PBMCs + live P. acnes 1:1, test material 30 PM, 24 hours, read-out: TNFa-Gene % inhibition
Method: as §1

IL-4 = test: T-cell receptor (anti-CD3/CD28)-induced IL-4 on PBMCs; format: cell-based; details: Homo sapiens, PBMC, anti-CD3/CD28 beads, 24 hours, ELISA, read-out: TCR-PBMCs IL-4 Protein IC50
Method: (§4) Cryopreserved human Peripheral Blood Mononuclear cells (PBMCs) from healthy adult donors were obtained from Zen Bio, Inc (Cat No. SER-PBMC-F). Cells were cultured in 96-well plates with lymphocyte media (Cat No. LYMPH-1) and were pre-treated with test materials (≤100 μM) for 2 hours and later co-treated with test materials and anti-CD3/CD28 beads (Thermo-Fisher; Cat No. 11131D) at 1:0.4 PBMC:bead ratio for 24 hours at 37° C. and 5% CO2. After incubation, cell media supernatants were harvested and used to measure cytokine levels (IL-4, IL-5, IL-10) using ELISA kits (BD Biosciences® #555194, #555157; R&D Systems® #DY317). Results were represented as percent of inhibition relative to untreated and anti-CD3/CD28 beads-only treated cells. IC50 values were determined by non-linear regression analysis using the four-parameter logistic equation.

IL-10 = test: T-cell receptor (anti-CD3/CD28)-induced IL-10 on PBMCs; format: cell-based; details: Homo sapiens, PBMC, anti-CD3/CD28 beads, 24 hours, ELISA, read-out: TCR-PBMCs IL-10 Protein IC50
Method: as §4

IL-5 = test: T-cell receptor (anti-CD3/CD28)-induced IL-5 on PBMCs; format: cell-based; details: Homo sapiens, PBMC, anti-CD3/CD28 beads, 24 hours, ELISA, read-out: TCR-PBMCs IL-5 Protein IC50
Method: as §4

Row | SMILES | inhibition at 30 pM (IL-17) [%] | MBEC [1] | IL-8 Protein % inhibition (IL-8 [2]) [%] | TNFa-Protein % inhibition (TNF-α) [%] | hBD3 gene expression (DEFB103 (hBD3)) | MIC (P. acnes (ATCC 6919) [3]) [µg/mL] | MBC (P. acnes (ATCC 6919) [4]) [µg/mL] | hCAP18 gene expression (HCAP18) | IC50 (IL-8 [5]) [µM] | hBD2 gene expression (DEFB4B (hBD2)) | inhibition at 30 pM (IL-1b) [%] | IC50 (IL-8 [6]) [µM] | inhibition at 30 pM (CXCL8 (IL-8)) [%] | inhibition at 30 pM (IL1B (IL-1b)) [%] | inhibition in vivo at 3 % strength (Balb/C mice) [%] | inhibition at 30 pM (IL17A (IL-17A)) [%] | inhibition at 30 pM (TNF (TNF-α)) [%] | IC50 (IL-4) [µM] | IC50 (IL-10) [µM] | IC50 (IL-5) [µM]
1 | O=C(O)c1ccccc1O [Salicylic Acid, reference compound] | 0 | >8000 μg/mL and (>57920) μM | 0 | 0 | 1.2 Fold-expression/untreated cells | 1000 (≈ 7.24 mM) | 2000 (≈ 14.5 mM) | 1.2 Fold-expression/untreated cells | > 1 | 1.0 Fold-expression/untreated cells | 40 | – | – | – | – | – | – | – | – | –
2 | C/C(=C\CSCC(NC(=O)c1cc(O)c(O)c(O)c1)C(=O)O)CCCC(C)CCCC(C)CCCC(C)C (stereo not shown) [V] | – | – | – | – | – | > 4 | > 25 | – | – | – | – | 0.003 | 46 | 83 | 5 | 0 | 0 | – | – | –
3 | CSCCC(NC(C)=O)C(=O)NC(CSC/C=C(\C)CCCC(C)CCCC(C)CCCC(C)C)C(=O)O (stereo not shown) [Compound B] | – | – | – | – | – | 24 (≈ 0.0419 mM) | – | – | – | – | – | – | – | – | 48 | – | – | 52 | 46 | 50
4 | O=C(O)CCCCCCCC(=O)O [Azelaic Acid, reference compound] | 0 | 8000 μg/mL and (42503) μM | 43 | 0 | 0.9 Fold-expression/untreated cells | 1000 (≈ 5.31 mM) | > 2000 | 1.1 Fold-expression/untreated cells | – | 1.8 Fold-expression/untreated cells | 66 | – | – | – | – | – | – | – | – | –
